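Briefly, cells in 96-well plates were exposed to five compound concentrations for 48 h, and endpoints were estimated by linear interpolation. TGI: total growth inhibition.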
Assays:
Assay in all cases: NCI-60 cell line screen, 48 h
[1] = system: NCI-H226 lung
[2] = system: SF-295 CNS
[3] = system: UACC-62 melanoma
[4] = system: NCI-H522 lung
[5] = system: NCI-H23 lung
[6] = system: HCT-15 colon
[7] = system: TK-10 renal
[8] = system: MCF7 breast
[9] = system: HL-60(TB) leukemia
[10] = system: MDA-MB-435
[11] = system: MDA-MB-231 breast
[12] = system: UO-31 renal
[13] = system: U251 CNS
[14] = system: LOX IMVI melanoma
[15] = system: OVCAR-5 ovarian
[16] = system: HCT-116 colon
[17] = system: CCRF-CEM leukemia
[18] = system: A549 NSCLC
[19] = system: M14 melanoma
[20] = system: K-562 leukemia
[21] = system: OVCAR-4 ovarian
[22] = system: ACHN renal
[23] = system: HS 578T breast
[24] = system: COLO 205 colon
[25] = system: HOP-62 NSCLC
[26] = system: SK-MEL-5 melanoma
[27] = system: A498 renal
[28] = system: KM12 colon
[29] = system: SNB-19 CNS
[30] = system: HT29 colon
[31] = system: HOP-92 NSCLC
[32] = system: SK-OV-3 ovarian
[33] = system: SW-620 colon
[34] = system: SNB-75 CNS
[35] = system: SK-MEL-28 melanoma
[36] = system: NCI-H460 lung
[37] = system: CAKI-1 renal
[38] = system: SF-539 CNS
[39] = system: IGROV1 ovarian
[40] = system: DU-145 prostate
[41] = system: MALME-3M melanoma
[42] = system: MOLT-4 leukemia
[43] = system: 786-0 renal
[44] = system: OVCAR-3 ovarian
[45] = system: SF-268 CNS
[46] = system: SN12C renal
[47] = system: OVCAR-8 ovarian
[48] = system: BT-549 breast
[49] = system: PC-3 prostate
[50] = system: RPMI-8226 leukemia
[51] = system: UACC-257 melanoma
[52] = system: RXF 393 renal
[53] = system: NCI/ADR-RES ovarian
[54] = system: SR leukemia
[55] = system: SK-MEL-2 melanoma
[56] = system: T-47D breast

Q: `CCOC(=O)c1ccc(N=C/C=C(\Nc2ccc(C(=O)OCC)cc2)c2ccc3ccccc3c2)cc1` was tested. Which TGI [1] did it give?
A: 96.9 µM

Q: What about the TGI [2] of the same compound?
A: > 100 µM

Q: And the TGI [3]?
A: 30.5 µM

Q: What about the TGI [4] of the same compound?
A: > 100 µM

Q: What about the TGI [5] of the same compound?
A: 54 µM

Q: And the TGI [6]?
A: 61.1 µM

Q: What about the TGI [7] of the same compound?
A: 53.4 µM

Q: What about the TGI [8] of the same compound?
A: 67 µM

Q: What about the TGI [9] of the same compound?
A: 70.8 µM

Q: And the TGI [10]?
A: 33.3 µM

Q: What about the TGI [11] of the same compound?
A: 80.6 µM

Q: And the TGI [12]?
A: > 100 µM

Q: What about the TGI [13] of the same compound?
A: > 100 µM

Q: And the TGI [14]?
A: 34.4 µM

Q: What about the TGI [15] of the same compound?
A: > 100 µM

Q: And the TGI [16]?
A: > 100 µM

Q: What about the TGI [17] of the same compound?
A: 46.5 µM

Q: And the TGI [18]?
A: > 100 µM

Q: And the TGI [19]?
A: 59 µM

Q: What about the TGI [20] of the same compound?
A: 56.7 µM

Q: What about the TGI [21] of the same compound?
A: 80.3 µM

Q: And the TGI [22]?
A: > 100 µM

Q: What about the TGI [23] of the same compound?
A: 96.3 µM

Q: What about the TGI [24] of the same compound?
A: 32.6 µM

Q: And the TGI [25]?
A: 95.8 µM

Q: And the TGI [26]?
A: 34.7 µM

Q: What about the TGI [27] of the same compound?
A: > 100 µM

Q: What about the TGI [28] of the same compound?
A: 48.2 µM

Q: What about the TGI [29] of the same compound?
A: > 100 µM

Q: What about the TGI [30] of the same compound?
A: 49 µM

Q: And the TGI [31]?
A: > 100 µM

Q: What about the TGI [32] of the same compound?
A: > 100 µM

Q: What about the TGI [33] of the same compound?
A: > 100 µM

Q: What about the TGI [34] of the same compound?
A: > 100 µM

Q: What about the TGI [35] of the same compound?
A: 61.1 µM

Q: And the TGI [36]?
A: > 100 µM

Q: What about the TGI [37] of the same compound?
A: 83.8 µM

Q: What about the TGI [38] of the same compound?
A: 39.2 µM

Q: What about the TGI [39] of the same compound?
A: > 100 µM

Q: What about the TGI [40] of the same compound?
A: > 100 µM

Q: And the TGI [41]?
A: 43.6 µM

Q: What about the TGI [42] of the same compound?
A: 16.1 µM

Q: What about the TGI [43] of the same compound?
A: 64.1 µM

Q: What about the TGI [44] of the same compound?
A: 83.5 µM

Q: What about the TGI [45] of the same compound?
A: > 100 µM

Q: What about the TGI [46] of the same compound?
A: 58.6 µM

Q: What about the TGI [47] of the same compound?
A: > 100 µM

Q: And the TGI [48]?
A: 42.4 µM

Q: What about the TGI [49] of the same compound?
A: > 100 µM

Q: What about the TGI [50] of the same compound?
A: 52.1 µM

Q: What about the TGI [51] of the same compound?
A: 92.3 µM

Q: And the TGI [52]?
A: 57.3 µM

Q: And the TGI [53]?
A: 70.3 µM

Q: What about the TGI [54] of the same compound?
A: 41.6 µM

Q: And the TGI [55]?
A: 66.9 µM

Q: What about the TGI [56] of the same compound?
A: 43.2 µM
